One data set has as its system Rocuronium. As to the kind of experiment: Binding affinity to Rocuronium by Competition UV-Vis titration method.
Data set [1] is described as follows: Water solubility of the compound measured at 25 degreeC. The data set is classed as physicochemical.
Data set [2] has as its system Rattus norvegicus. The experiment in a line: Recovery of CisA-induced neuromuscular block in Sprague-Dawley rat assessed as […] ratio (TOFr) >= 90% by measuring recovery time at 80 mg/kg, iv (reference value: 784 seconds). The format is functional.
Data set [3] has as its system Rattus norvegicus. The experiment in a line: Recovery of Roc-induced neuromuscular block in Sprague-Dawley rat assessed as […] ratio (TOFr) >= 90% by measuring recovery time at 25 mg/kg, iv (reference value: 597 seconds). The data set is classed as functional.
Data set [4] is described as follows: Toxicity in iv dosed Sprague-Dawley rat assessed as maximum tolerated dose measured upto 14 days. The data set is classed as organism-based. The settings on record: in vivo, 336 h, time < 14 day.
The test system of data set [5] is Rattus norvegicus. As to the kind of experiment: Recovery of CisA-induced neuromuscular block in Sprague-Dawley rat assessed as […] ratio (TOFr) >= 90% by measuring recovery time at 120 mg/kg, iv (reference value: 784 seconds). The data set is classed as functional.
In data set [6] the test system is Rattus norvegicus. As to the kind of experiment: Recovery of Pan-induced neuromuscular block in Sprague-Dawley rat assessed as […] ratio (TOFr) >= 90% by measuring recovery time at 25 mg/kg, iv (reference value: 3600 seconds). The format is functional.
A short description of data set [7]: Therapeutic index, ratio of toxicity in iv dosed Sprague-Dawley rat assessed as maximum tolerated dose to recovery of Roc/Vec/Panc-induced neuromuscular block in Sprague-Dawley rat assessed as […] ratio (TOFr) by measuring recovery time at 25 mg/kg, iv. The data set is classed as organism-based. The settings on record: in vivo, read-out: TI.
The test system of a further data set is Rhodamine 6G. The experiment in a line: Binding affinity to Rhodamine 6G by Competition UV-Vis titration method.
The test system of the next data set is Vecuronium. The experiment in a line: Binding affinity to Vecuronium by Competition UV-Vis titration method.
Data set [8] deals with Midazolium-based-macrocycle. The experiment in a line: Binding affinity to Midazolium-based-macrocycle by Competition UV-Vis titration method.
A short description of data set [9]: Therapeutic index, ratio of toxicity in iv dosed Sprague-Dawley rat assessed as maximum tolerated dose to recovery of CisA-induced neuromuscular block in Sprague-Dawley rat assessed as […] ratio (TOFr) by measuring recovery time at 80 to 100 mg/kg, iv. The data set is classed as organism-based. The settings on record: in vivo, dose 80-100 mg/kg, read-out: TI.

Data set [10] concerns Rattus norvegicus. As to the kind of experiment: Recovery of Vec-induced neuromuscular block in Sprague-Dawley rat assessed as […] ratio (TOFr) >= 90% by measuring recovery time at 25 mg/kg, iv (reference value: 525 seconds). The data set is classed as functional.
Another data set deals with Proflavine. As to the kind of experiment: Binding affinity to Proflavine by Competition UV-Vis titration method.
A further data set has as its system Cisatracurium. The experiment in a line: Binding affinity to Cisatracurium by Competition UV-Vis titration method.
The subject of data set [11] is Rattus norvegicus. As to the kind of experiment: Recovery of IMC-1-induced neuromuscular block in Sprague-Dawley rat assessed as […] ratio (TOFr) >= 90% by measuring recovery time at 10 mg/kg, iv (reference value: 4021 seconds). The format is functional.
The subject of the next data set is Pancuronium. The experiment in a line: Binding affinity to Pancuronium by Competition UV-Vis titration method.
The nature of data set [12]: Solubility of the compound in sodium phosphate buffered water. The data set is classed as physicochemical.
In data set [13] the test system is Trans-cydohexane-1,4-diartunonium dichloride. As to the kind of experiment: Binding affinity to Trans-[…] dichloride by Competition UV-Vis titration method.

As for `O=C(O)CCSC[C@H]1O[C@@H]2O[C@H]3[C@H](O)[C@@H](O)[C@@H](O[C@H]4[C@H](O)[C@@H](O)[C@@H](O[C@H]5[C@H](O)[C@@H](O)[C@@H](O[C@H]6[C@H](O)[C@@H](O)[C@@H](O[C@H]7[C@H](O)[C@@H](O)[C@@H](O[C@H]8[C@H](O)[C@@H](O)[C@@H](O[C@H]9[C@H](O)C(O)[C@@H](O[C@H]1[C@H](O)[C@H]2O)O[C@@H]9CSCCC(=O)O)O[C@@H]8CSCCC(=O)O)O[C@@H]7CSCCC(=O)O)O[C@@H]6CSCCC(=O)O)O[C@@H]5CSCCC(=O)O)O[C@@H]4CSCCC(=O)O)O[C@@H]3CSCCC(=O)O` (stereo not given in full), the Ka in the data set on Rocuronium was 1.05 10^7/M.
The solubility is the concentration that dissolves in the medium under given conditions. A higher solubility goes with much dissolved substance. In the case of `CC[C@]12N3Cc4c(c(OCCCS(=O)(=O)[O-])c(C)c(C)c4OCCCS(=O)(=O)[O-])CN1C(=O)N1CN4C(=O)N5CN6C(=O)N7CN8C(=O)N9Cc%10c(c(OCCCS(=O)(=O)[O-])c(C)c(C)c%10OCCCS(=O)(=O)[O-])CN%10C(=O)N(CN%11C(=O)N(CN%12C(=O)N(CN(C3=O)[C@]12CC)[C@@H]4[C@H]%125)[C@@H]6[C@H]%117)[C@]8(CC)[C@@]9%10CC.[Na+].[Na+].[Na+].[Na+]`, in data set [1], the solubility amounted to 940 mg/mL. Moreover, the Time with Rattus norvegicus [2] amounted to 130 s; in the data set with Rattus norvegicus [3], 31 s.
With `C[C@]12N3Cc4c(c(OCCC(=O)[O-])c5ccccc5c4OCCC(=O)[O-])CN1C(=O)N1CN4C(=O)N5CN6C(=O)N7CN8C(=O)N9Cc%10c(c(OCCC(=O)[O-])c%11ccccc%11c%10OCCC(=O)[O-])CN%10C(=O)N(CN%11C(=O)N(CN%12C(=O)N(CN(C3=O)[C@]12C)[C@@H]4[C@H]%125)[C@@H]6[C@H]%117)[C@]8(C)[C@@]9%10C.[Na+].[Na+].[Na+].[Na+]`, the Time with Rattus norvegicus [3] is 95 s.
On the same count and under the same terms, to `C[C@]12N3Cc4c(c(OCC(=O)[O-])c5ccccc5c4OCC(=O)[O-])CN1C(=O)N1CN4C(=O)N5CN6C(=O)N7CN8C(=O)N9Cc%10c(c(OCC(=O)[O-])c%11ccccc%11c%10OCC(=O)[O-])CN%10C(=O)N(CN%11C(=O)N(CN%12C(=O)N(CN(C3=O)[C@]12C)[C@@H]4[C@H]%125)[C@@H]6[C@H]%117)[C@]8(C)[C@@]9%10C.[Na+].[Na+].[Na+].[Na+]` belongs 108 s.
Take `O=C1N2Cc3c(OCCCS(=O)(=O)[O-])ccc(OCCCS(=O)(=O)[O-])c3CN3C(=O)N4CN5C(=O)N6CN7C(=O)N8CN9C(=O)N%10Cc%11c(OCCCS(=O)(=O)[O-])ccc(OCCCS(=O)(=O)[O-])c%11CN%11C(=O)N(CN%12C(=O)N(CN%13C(=O)N(CN1C41CCCCC231)[C@H]5[C@H]6%13)[C@H]7[C@H]8%12)C91CCCCC%10%111.[Na+].[Na+].[Na+].[Na+]` (stereo not given in full): the solubility in data set [1] was found to be 520 mg/mL. Further, in the data set on Rattus norvegicus [3], the Time is reported as 203 s.
The term MTD denotes the largest dose that counted as tolerated. `CC[C@]12N3Cc4c(c(OCCCS(=O)(=O)[O-])c5ccccc5c4OCCCS(=O)(=O)[O-])CN1C(=O)N1CN4C(=O)N5CN6C(=O)N7CN8C(=O)N9Cc%10c(c(OCCCS(=O)(=O)[O-])c%11ccccc%11c%10OCCCS(=O)(=O)[O-])CN%10C(=O)N(CN%11C(=O)N(CN%12C(=O)N(CN(C3=O)[C@]12CC)[C@@H]4[C@H]%125)[C@@H]6[C@H]%117)[C@]8(CC)[C@@]9%10CC.[Na+].[Na+].[Na+].[Na+]` had a solubility in [1] of 670 mg/mL. Further, the maximum tolerated dose (MTD) in data set [4] came to 500 mg/kg. For the same compound, the figures for the Time with Rattus norvegicus [2] and in the data set on Rattus norvegicus [3] were 57 s and 19 s, respectively.
In turn, `COc1cc(OCCCS(=O)(=O)[O-])c2c(c1OCCCS(=O)(=O)[O-])CN1C(=O)N3CN4C(=O)N5CN6C(=O)N7CN8C(=O)N9Cc%10c(c(OCCCS(=O)(=O)[O-])cc(OC)c%10OCCCS(=O)(=O)[O-])CN%10C(=O)N(CN%11C(=O)N(CN%12C(=O)N(CN%13C(=O)N(C2)C1(C)C%133C)C4C%125)C6C%117)C8(C)C%109C.[Na+].[Na+].[Na+].[Na+]` (stereo not given) gave a solubility in data set [1] of 870 mg/mL. Besides, in the data set with Rattus norvegicus [3], the Time is 40 s.
The like results for `Cc1cc(OCCCS(=O)(=O)[O-])c2c(c1OCCCS(=O)(=O)[O-])CN1C(=O)N3CN4C(=O)N5CN6C(=O)N7CN8C(=O)N9Cc%10c(c(OCCCS(=O)(=O)[O-])cc(C)c%10OCCCS(=O)(=O)[O-])CN%10C(=O)N(CN%11C(=O)N(CN%12C(=O)N(CN%13C(=O)N(C2)C1(C)C%133C)C4C%125)C6C%117)C8(C)C%109C.[Na+].[Na+].[Na+].[Na+]` (mixture of isomers) were, in that order, 600 mg/mL and 151 s.
Consider `C[C@]12N3Cc4c(c(OCC(C(=O)[O-])C(=O)[O-])c5ccccc5c4OCC(C(=O)[O-])C(=O)[O-])CN1C(=O)N1CN4C(=O)N5CN6C(=O)N7CN8C(=O)N9Cc%10c(c(OCC(C(=O)[O-])C(=O)[O-])c%11ccccc%11c%10OCC(C(=O)[O-])C(=O)[O-])CN%10C(=O)N(CN%11C(=O)N(CN%12C(=O)N(CN(C3=O)[C@]12C)[C@@H]4[C@H]%125)[C@@H]6[C@H]%117)[C@]8(C)[C@@]9%10C.[Na+].[Na+].[Na+].[Na+].[Na+].[Na+].[Na+].[Na+]`, for which the Time in the data set with Rattus norvegicus [3] is on record as 84 s.
Regarding `CC[C@]12N3Cc4c(OCCCS(=O)(=O)[O-])ccc(OCCCS(=O)(=O)[O-])c4CN1C(=O)N1CN4C(=O)N5CN6C(=O)N7CN8C(=O)N9Cc%10c(OCCCS(=O)(=O)[O-])ccc(OCCCS(=O)(=O)[O-])c%10CN%10C(=O)N(CN%11C(=O)N(CN%12C(=O)N(CN(C3=O)[C@]12CC)[C@@H]4[C@H]%125)[C@@H]6[C@H]%117)[C@]8(CC)[C@@]9%10CC.[Na+].[Na+].[Na+].[Na+]`, the solubility in data set [1] was 750 mg/mL. In the data set on Rattus norvegicus [3], the Time came out at 348 s.
For `Cc1c(C)c(OCCCS(=O)(=O)[O-])c2c(c1OCCCS(=O)(=O)[O-])CN1C(=O)N3CN4C(=O)N5CN6C(=O)N7CN8C(=O)N9Cc%10c(c(OCCCS(=O)(=O)[O-])c(C)c(C)c%10OCCCS(=O)(=O)[O-])CN%10C(=O)N(CN%11C(=O)N(CN%12C(=O)N(CN%13C(=O)N(C2)[C@]1(C)[C@]%133C)[C@@H]4[C@@H]5%12)[C@@H]6[C@@H]7%11)[C@]8(C)[C@]%109C.[Na+].[Na+].[Na+].[Na+]`, the Time stood at 28 s in the data set with Rattus norvegicus [5]; 21 s in the data set with Rattus norvegicus [6]; 35 s with Rattus norvegicus [2]; 13 s in the data set on Rattus norvegicus [10]; 13 s with Rattus norvegicus [11]; 30 s with Rattus norvegicus [3]. Besides, the selectivity ratio was 60 in data set [7] and 18.8 in [9]. The Ka in the data set on Rhodamine 6G is 0.045 10^7/M; with Vecuronium, 2.92 10^7/M; in data set [8] it was 119 10^7/M; with Rocuronium it was 9.84 10^7/M; in the data set on Proflavine, 13 10^7/M; in the data set with Cisatracurium, 0.13 10^7/M. Also, the Ka was 51 10^7/M in the data set with Pancuronium and 0.069 10^7/M in data set [13]. Moreover, the solubility in [1] worked out at 500 mg/mL; in data set [12], 563 mg/mL. In addition, the MTD in data set [4] was 500 mg/kg.
As to `CN(C)C(=O)Oc1cccc([N+](C)(C)C)c1` [NEOSTIGMINE], the Time in the data set on Rattus norvegicus [2] was 276 s; with Rattus norvegicus [3], 409 s.

For the origin of these results see ChEMBL document CHEMBL6120965, “Structure-Activity Relationship Studies Leading to the Discovery of Highly Water-Soluble and Biocompatible Acyclic Cucurbit[n]uril FY-3451 as a Universal Antagonist That Rapidly Reverses Neuromuscular Blocking Agents In Vivo” (J Med Chem, 2024).
